Among the data in patent US8063221B2, “Aminoquinolones as GSK-3 inhibitors” (Kyorin Pharmaceutical Co., Ltd., priority 2006, dated 2011) are IC50 and MIC values, retold here.

Converted amounts (≈) assume the structure as drawn. Read-outs that look alike come from different tables or passages of the source.

In assay [1] the target is T1, recombinant full-length human GSK3β (Homo sapiens, UniProt P49841).
T1 construct: recombinant full-length human GSK3β (Upstate); purchased Upstate
Description: Luciferase-coupled cell-free GSK3β kinase assay. Format: biochemical. On the procedure:
For compounds in Tables 1 and 2, IC50 (μM) for GSK3β enzyme in cell free assay is provided as follows:
Luciferase-Coupled Protein Kinase Assays
All coupled-luciferase assays are performed by using a brief incubation with firefly luciferase (Promega) after completion of the kinase assay. KinaseGlo Plus is used for reading kinase reactions with ATP>10 μM, KinaseGlo for ATP <10 μM. The assay volume in a 384-well plate for the kinase reaction is 30 microliters.
10-25 ng of recombinant full-length human GSK3β (Upstate) is incubated in the presence or absence of compound at varying concentrations for 1 hour at 30 degrees Celsius in 20 mM MOPS, pH 7.0, 10 mM magnesium acetate, 0.2 mM EDTA, 2 mM EGTA, 30 mM magnesium chloride, 62.5 μM phospho-glycogen synthase peptide-2, 5 μM ATP, 10 mM β-glycerol phosphate, 1 mM sodium orthovanadate and 1 mM dithiothreitol. Proceed to KinaseGlo luciferase reaction (see below).
Following the completion of the kinase reaction an equal volume of KinaseGlo or KinaseGlo Plus luciferase reagent (Promega) is added and the luminescence read using a luminescence plate reader within 5-10 minutes. Compound activity is expressed as % inhibition relative to maximal inhibition observed at the maximal dose and IC50 values then calculated using curve fitting software (GraphPad Prizm).

The test system of another assay is E. coli, ATCC8739. Description: Antibacterial activity (MIC), E. coli. Format: cell-based. The conditions noted are these: Escherichia coli, E. coli ATCC8739. An excerpt: (§1) As used herein, a minimum inhibitory concentration (MIC) for bacterial growth assay is the lowest level of a compound needed to cause an inhibition to bacterial growth in culture medium. In certain embodiments, the antibacterial activity of compounds herein, measured as MIC.
(§2) In certain embodiments, GSK3 inhibitors provided herein are substantially free of antibacterial activity or having very low antibacterial activity. The antibacterial activity can be measured by methods known in the art by estimating a minimum inhibitory concentration (MIC) for test compounds. A MIC is the lowest level of a compound needed to cause an inhibition to bacterial growth in a culture medium. […] (Clinical and Laboratory Standards Institute. Methods for Dilution Antimicrobial Susceptibility Tests for Bacteria That Grow Aerobically; Approved Standard-Sixth Edition: CLSI document […]. CLSI, Wayne, Pa. (2003))
(§3) Antibacterial activity for E. coli, ATCC8739 andS. aureus Smith expressed as MIC (μM) is provided as follows: […]

The test system of the next assay is S. aureus Smith. Put plainly: Antibacterial activity (MIC), S. aureus. Format: cell-based. As to conditions: Staphylococcus aureus.
Excerpt: as §1, §2, §3

The mark [2] stands for this setting: ATCC8739, Table 2, read-out: Antimicrobial MIC [μM] E. Coli.
The mark [3] stands for this setting: Table 2, S. aureus Smith, read-out: Antimicrobial MIC [μM] S. aureus.
Where [4] appears, read: ATCC8739, Table 1, read-out: Antibacterial MIC (μM) E.Coli.
Where [5] appears, read: Table 1, read-out: Antibacterial MIC (μM) S. aureus Smith.

T1 sequence (P49841 whole entry): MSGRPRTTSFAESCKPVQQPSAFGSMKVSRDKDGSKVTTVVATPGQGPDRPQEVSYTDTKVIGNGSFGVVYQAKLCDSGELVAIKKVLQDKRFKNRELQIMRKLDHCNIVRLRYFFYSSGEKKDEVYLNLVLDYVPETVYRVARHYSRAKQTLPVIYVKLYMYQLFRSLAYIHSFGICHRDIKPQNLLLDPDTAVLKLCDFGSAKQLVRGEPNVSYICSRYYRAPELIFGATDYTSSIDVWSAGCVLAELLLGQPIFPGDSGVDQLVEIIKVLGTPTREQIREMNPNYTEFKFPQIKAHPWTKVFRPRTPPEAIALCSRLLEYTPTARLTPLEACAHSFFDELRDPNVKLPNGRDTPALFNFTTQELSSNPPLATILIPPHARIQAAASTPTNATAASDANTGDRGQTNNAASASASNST

The IC50 is the concentration that gives 50% inhibition. For orientation: MIC means the lowest concentration that inhibits growth of the organism. Regarding `C[C@H]1COc2c(NCCCn3ccnc3)c(F)c(N)c3c(=O)c(C(=O)O)cn1c23` [compound 20], the IC50 in assay [1] (Table 2) lay within 100 to 500 nM. For the same compound, the MIC lay in the range of 10 to 50 µM (≈ 4.01 to 20.1 µg/mL) in the assay with E. coli, ATCC8739 (setting [2]) and 0.5 to 10 µM (≈ 0.201 to 4.01 µg/mL) with S. aureus Smith (setting [3]).
On to `Nc1c(F)c(NCCCCc2ccccc2)c(F)c2c1c(=O)c(C(=O)O)cn2C1CC1` [compound 20], for which the IC50 in assay [1] (Table 1) fell in the range of 100 to 500 nM. Besides, the MIC with E. coli, ATCC8739 (setting [4]) was in the range of 10 to 50 µM (≈ 4.27 to 21.4 µg/mL); in the assay with S. aureus Smith (setting [5]), 0.5 to 10 µM (≈ 0.214 to 4.27 µg/mL).
The like results for `CC(C)(C)OC(=O)NCCNc1c(F)c(N)c2c(=O)c(C(=O)O)cn(C3CC3)c2c1F` [compound 21] were, in that order, 500 to 1000 nM, 0.5 to 10 µM (≈ 0.219 to 4.38 µg/mL) and 0.5 to 10 µM (≈ 0.219 to 4.38 µg/mL).
Regarding `CC(C)OCCCNc1c(F)c(N)c2c(=O)c(C(=O)O)cn3c2c1OC[C@@H]3C` [compound 21], the IC50 in assay [1] (Table 2) was 100 to 500 nM. Moreover, the MIC is > 50 µM in the assay with E. coli, ATCC8739 (setting [2]) and 0.5 to 10 µM (≈ 0.197 to 3.93 µg/mL) in the assay with S. aureus Smith (setting [3]).
The like results for `C[C@H]1COc2c(NCCCN3CCCC3=O)c(F)c(N)c3c(=O)c(C(=O)O)cn1c23` [compound 23] were, in that order, 100 to 500 nM, 0.5 to 10 µM (≈ 0.209 to 4.18 µg/mL) and 0.5 to 10 µM (≈ 0.209 to 4.18 µg/mL).
Take `Nc1c(F)c(NCCCn2ccnc2)c(F)c2c1c(=O)c(C(=O)O)cn2C1CC1` [compound 23]: the IC50 in assay [1] (Table 1) is < 100 nM. Moreover, the MIC with E. coli, ATCC8739 (setting [4]) was in the range of 0.5 to 10 µM (≈ 0.202 to 4.03 µg/mL); in the assay with S. aureus Smith (setting [5]) it was 0.5 to 10 µM (≈ 0.202 to 4.03 µg/mL).
Regarding `CC1(C)COc2c(NCCNc3ccccn3)c(F)c(N)c3c(=O)c(C(=O)O)cn(c23)C1` [compound 24], the half-inhibitory concentration (IC50) in assay [1] (Table 2) was in the range of 100 to 500 nM. Further, the MIC in the assay on E. coli, ATCC8739 (setting [2]) is 0.5 to 10 µM (≈ 0.221 to 4.41 µg/mL); in the assay with S. aureus Smith (setting [3]), 0.5 to 10 µM (≈ 0.221 to 4.41 µg/mL).
As for `CC1(C)COc2c(NCCCc3ccccc3)c(F)c(N)c3c(=O)c(C(=O)O)cn(c23)C1` [compound 25], in assay [1] (Table 2), the IC50 is < 100 nM. Further, the MIC in the assay on E. coli, ATCC8739 (setting [2]) lay within 0.5 to 10 µM (≈ 0.22 to 4.39 µg/mL); in the assay on S. aureus Smith (setting [3]), 0.5 to 10 µM (≈ 0.22 to 4.39 µg/mL).
For `CC1(C)COc2c(NCCCn3ccnc3)c(F)c(N)c3c(=O)c(C(=O)O)cn(c23)C1` [compound 26], in assay [1] (Table 2), the IC50 was < 100 nM. The MIC with E. coli, ATCC8739 (setting [2]) lay within 10 to 50 µM (≈ 4.29 to 21.5 µg/mL); in the assay with S. aureus Smith (setting [3]) it was 10 to 50 µM (≈ 4.29 to 21.5 µg/mL).
As for `Nc1c(F)c(NCCCn2ccnc2)c(F)c2c1c(=O)ccn2C1CC1` [compound 26], the IC50 in assay [1] (Table 1) fell in the range of 100 to 500 nM. Besides, the MIC in the assay on E. coli, ATCC8739 (setting [4]) was > 50 µM; in the assay with S. aureus Smith (setting [5]) it was > 50 µM.
With `Nc1c(F)c(NCCc2c[nH]c3ccccc23)c(F)c2c1c(=O)ccn2C1CC1` [compound 28], the IC50 in assay [1] (Table 1) was 100 to 500 nM. Besides, the MIC with E. coli, ATCC8739 (setting [4]) was > 50 µM; in the assay on S. aureus Smith (setting [5]), > 50 µM.
For `CC(C)(C)OC(=O)NCCNc1c(F)c(N)c2c(=O)ccn(C3CC3)c2c1F` [compound 29], the IC50 in assay [1] (Table 1) fell in the range of 100 to 500 nM. Also, the MIC is > 50 µM in the assay on E. coli, ATCC8739 (setting [4]) and > 50 µM with S. aureus Smith (setting [5]).
Take `C[C@@H]1COc2c(NCCNc3ccccn3)c(F)c(N)c3c(=O)c(C(=O)O)cn1c23` [compound 30]: in assay [1] (Table 2), the IC50 lay in the range of 500 to 1000 nM. In addition, the MIC in the assay on E. coli, ATCC8739 (setting [2]) was > 50 µM; in the assay on S. aureus Smith (setting [3]) it was > 50 µM.
Take `C[C@@H]1COc2c(NCCCn3cnc4ccccc43)c(F)c(N)c3c(=O)c(C(=O)O)cn1c23` [compound 32]: the IC50 in assay [1] (Table 2) lay within 100 to 500 nM. Also, the MIC with E. coli, ATCC8739 (setting [2]) lay within 10 to 50 µM (≈ 4.51 to 22.6 µg/mL); in the assay on S. aureus Smith (setting [3]), 10 to 50 µM (≈ 4.51 to 22.6 µg/mL).
Regarding `CC1(C)COc2c(NCCNc3cccc4ccccc34)c(F)c(N)c3c(=O)c(C(=O)O)cn1c23` [compound 36], in assay [1] (Table 2), the IC50 was < 100 nM. In addition, the MIC in the assay on E. coli, ATCC8739 (setting [2]) lay in the range of 10 to 50 µM (≈ 4.77 to 23.8 µg/mL); in the assay with S. aureus Smith (setting [3]), 10 to 50 µM (≈ 4.77 to 23.8 µg/mL).
In the case of `CC1(C)COc2c(NCCCn3cnc4ccccc43)c(F)c(N)c3c(=O)c(C(=O)O)cn1c23` [compound 37], the IC50 in assay [1] (Table 2) is < 100 nM. The MIC in the assay with E. coli, ATCC8739 (setting [2]) was 0.5 to 10 µM (≈ 0.233 to 4.65 µg/mL); in the assay on S. aureus Smith (setting [3]) it was 0.5 to 10 µM (≈ 0.233 to 4.65 µg/mL).
Take `CC1(C)COc2c(NCCCc3ccccc3)c(F)c(N)c3c(=O)c(C(=O)O)cn1c23` [compound 38]: the IC50 in assay [1] (Table 2) was < 100 nM. The MIC is 10 to 50 µM (≈ 4.25 to 21.3 µg/mL) with E. coli, ATCC8739 (setting [2]) and 10 to 50 µM (≈ 4.25 to 21.3 µg/mL) with S. aureus Smith (setting [3]).
Consider `CC1(C)COc2c(NCCc3ccncc3)c(F)c(N)c3c(=O)c(C(=O)O)cn1c23` [compound 39], for which the IC50 in assay [1] (Table 2) is 100 to 500 nM. Also, the MIC was > 50 µM in the assay with E. coli, ATCC8739 (setting [2]) and 10 to 50 µM (≈ 4.12 to 20.6 µg/mL) in the assay on S. aureus Smith (setting [3]).
The like results for `CC(C)OCCCNc1c(F)c(N)c2c(=O)c(C(=O)O)cn3c2c1OCC3(C)C` [compound 40] were, in that order, 100 to 500 nM, > 50 µM and > 50 µM.
